Measurements as given in patent publication US8383663B2, “Bendamustine anionic-catioinic cyclopolysaccharide compositions” (priority 2010, dated 2013).
Counter-ions that a name gives are not always drawn.

System: human breast carcinoma MDA-MB-231 cells
Experiment: Growth of subcutaneous solid tumors of human breast carcinoma MDA-MB-231 cells in mice
Assay type: in vivo, Balb/c mice
Details: 35 mg/kg i.v. on day 1, 2, 13 and 14, Average (SEM)
Description: Effect of bendamustine in a composition comprising sodium sulfobutyl ether β-cyclodextrin and heptakis(6-amino-6-deoxy-β-cyclodextrin) on growth of subcutaneous solid tumors of human breast carcinoma MDA-MB-231 cells in Balb/c mice.
Balb/c mice aging 5 to 6 weeks were purchased from Charles River Canada Inc. The animals were kept 5 per cage with an air filter cover under light (12 light/dark cycle, light on at 6H00) and temperature (22°±1° C.)-controlled environment. All manipulations of animals were performed under a sterilized laminar. The animals had ad libitum access to Purina mouse chow (Pro Lab PMH 4018, Trademark of Agway, Syracuse, N.Y.) and water. These animal studies were conducted according to the “Guidelines for Care and Use of Experimental Animals”.
Human breast cancer cells MDA-MB 231 were cultured in the appropriated culture medium. The cells were harvested in their logarithmic growth phase for the preparation of tumor implantation.
MDA-MB-231 cells (5.0×10^5 cells per an injection) in culture medium with 30% Matrigel were subcutaneously inoculated at 2 sides of the flank of each animal. Nine to ten days after implantation, when tumor size reaches to 0.5 to 0.8 cm in the diameter, the animals were be randomly divided into groups, 5 animals per group. The treatments by intravenously injection were performed on day 1, 2, 13 and 14. The control group was treated with isotonic saline. The reference group was treated with 35 mg/kg dose of bendamustine HCl in water (7 mg/mL). The test group was treated with 60 mg/kg dose (equitoxic to the reference group treatment) of the composition of the present invention, comprising 13 mg/g bendamustine HCl, 20% SBECD and 1% H6A, and mannitol, prepared according to the procedure set forth in Example 1.
Subcutaneous solid tumor measurements were performed on the day of first injection and at 3- to 4-day intervals thereafter. Two largest perpendicular diameters of each tumor were measured with calipers and tumor size was estimated using formula […] where TV: tumor volume; L: length; W: width.
The body weights of animals were also noted.

In the case of `Cn1c(CCCC(=O)O)nc2cc(N(CCCl)CCCl)ccc21` [Reference BM, bendamustine HCl], the “Tumor weight after treatment” value (day 0) is reported as 0.111 (0.013) g, the “Tumor weight after treatment” value (day 2) is reported as 0.123 (0.016) g and the “Tumor weight after treatment” value (day 5) is reported as 0.134 (0.015) g. The “Tumor weight after treatment” value (day 7) was 0.146 (0.017) g, the “Tumor weight after treatment” value (day 9) was 0.156 (0.017) g and the “Tumor weight after treatment” value (day 12) was 0.174 (0.018) g. The “Tumor weight after treatment” value (day 14) was 0.205 (0.021) g, the “Tumor weight after treatment” value (day 16) was 0.228 (0.024) g and the “Tumor weight after treatment” value (day 19) was 0.248 (0.035) g. For the same molecule, the “Tumor weight after treatment” value (day 21) was 0.272 (0.042) g and the “Tumor weight after treatment” value (day 23) was 0.296 (0.047) g.
